Among the data in patent publication US20200404919A1, “USE OF HETEROARYL-TRIAZOLE AND HETEROARYL-TETRAZOLE COMPOUNDS AS PESTICIDES IN PLANT PROTECTION” (Bayer Aktiengesellschaft, priority 2018, published 2020) are mortality and pest or weed control values, retold here.

Assay type in all cases: in vivo
Assay [1] deals with Culex quinquefasciatus. In words: Culex test (CULXFAS surface treatment & contact assay). Particulars: 30 minutes exposure, 24 hours after contact, read-out: efficacy (mortality in percent); for mortality at 4 mg/m2: surface concentration 4 mg/m^2, glazed tile; for mortality at 20 mg/m2: surface concentration 20 mg/m^2, glazed tile. As to the method:
Culex Test (CULXFAS Surface Treatment & Contact Assay)
Solvent: Acetone+2000 ppm rapeseed oil methyl ester (RME)
In order to produce a sufficient, active ingredient containing solution it is necessary to solve the test-compound in an acetone/RME solvent mixture. This solution is pipetted onto a glazed tile and after evaporation of the acetone, adult mosquitoes of the species Culex quinquefasciatus (Brown house mosquito) are placed onto the dried surface. The exposure time is 30 minutes.
(§1) Mortality in percent (%) is determined 24 hours after contact to the treated surface. 100% mortality means that all test-insects are dead, whereas 0% means that not a single insect died.

The test system of assay [2] is Aphis gossypii. The assay is described as follows: Aphis gossypii - oral test. Particulars: 120 h, read-out: mortality in %. Summed up: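 Mixed-population cotton aphids feed through parafilm on compound (acetone stock diluted in water) mixed with IPL41 insect medium containing sugar. Mortality (%) scored after 5 days.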
Assay [3] has as its system Diabrotica balteata. The assay is described as follows: Diabrotica balteata - spray test. Particulars: 168 h, 160 μg/well, germinated wheat seeds, larvae, after 7 days, read-out: efficacy in %. A digest of the protocol:
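Wheat seeds germinated 1 day on agar were sprayed with compound diluted in water with 1000 ppm emulsifier, then infested with 10-20 Diabrotica balteata larvae. Efficacy in % scored after 7 days: 100% = seedlings grown as untreated, uninfected control; 0% = no seedlings grown.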

For assay [4], the system named is Myzus persicae. In words: Myzus persicae - oral test. Particulars: 120 h, read-out: mortality in %. Summed up:
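Mixed-population green peach aphids fed through parafilm on compound diluted in water plus IPL41 insect medium (33%+15% sugar). Mortality (%) scored after 5 days, 100% meaning all aphids killed.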

Assay [5] has as its system Nezara viridula. In words: Nezara viridula - spray test 1. Particulars: in Hordeum vulgare, 96 h, read-out: mortality in %. A digest of the protocol: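 Barley plants carrying southern green stink bug larvae were sprayed with compound diluted in water with 1000 ppm emulsifier. Mortality (%) was scored after 4 days.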
The test system of assay [6] is Musca domestica strain WHO-N. The assay is described as follows: Musca domestica test (MUSCDO surface treatment & contact assay). The conditions noted are these: 30 minutes exposure, 24 hours after contact, read-out: efficacy (mortality in percent); for mortality at 4 mg/m2: surface concentration 4 mg/m^2, glazed tile; for mortality at 20 mg/m2: surface concentration 20 mg/m^2, glazed tile. As to the method: Musca domestica Test (MUSCDO Surface Treatment & Contact Assay)
(§2) Solvent: Aceton+2000 ppm Rapeseed oil methyl ester (RME)
In order to produce a sufficient, active ingredient containing solution it is necessary to solve the test-compound in an acetone/RME solvent mixture. This solution is pipetted onto a glazed tile and after evaporation of the acetone, adult flies of the species Musca domestica strain WHO-N are placed onto the dried surface. The exposure time is 30 minutes.
as §1

For assay [7], the system named is Tetranychus urticae. In words: Tetranychus urticae - spray test OP-resistant. The conditions noted are these: foliar, 144 h, French bean leaf disks, all instars, after 6 days. As to the method:
Tetranychus urticae—Spray Test OP-Resistant
(§3) To produce a suitable preparation of active compound, 1 part by weight of active compound is mixed with the stated amount of solvents and is diluted with water, containing an emulsifier concentration of 1000 ppm, to the desired concentration. Further test concentrations are prepared by dilution with emulsifier containing water.
French bean (Phaseolus vulgaris) leaf disks infected with all instars of the two spotted spidermite (Tetranychus urticae), are sprayed with a preparation of the active ingredient of the desired concentration.
After 6 days mortality in % is determined. 100% means all spider mites have been killed and 0% means none of the spider mites have been killed.

Assay [8] relates to Aedes aegypti strain MONHEIM. The assay is described as follows: Aedes test (AEDSAE surface treatment & contact assay). The conditions noted are these: 30 minutes exposure, 24 hours after contact, read-out: efficacy (mortality in percent); for mortality at 4 mg/m2: surface concentration 4 mg/m^2, glazed tile; for mortality at 20 mg/m2: surface concentration 20 mg/m^2, glazed tile. The procedure:
Aedes Test (AEDSAE Surface Treatment & Contact Assay)
Solvent: Aceton+2000 ppm rapeseed oil methyl ester (RME)
In order to produce a sufficient, active ingredient containing solution it is necessary to solve the test-compound in an acetone/RME solvent mixture. This solution is pipetted onto a glazed tile and after evaporation of the acetone, adult mosquitoes of the species Aedes aegypti strain MONHEIM are placed onto the dried surface. The exposure time is 30 minutes.
as §1

The test system of assay [9] is Spodoptera frugiperda. In words: Spodoptera frugiperda - spray test. Particulars: in Zea mays, 168 h, read-out: mortality in %. A digest of the protocol:
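Maize leaf sections sprayed with compound diluted in water with 1000 ppm emulsifier, then infested with larvae once dry. Mortality (%) scored after 7 days; 100% = all caterpillars killed.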

Assay [10] deals with Phaedon cochleariae. The assay is described as follows: Phaedon cochleariae - spray test. The conditions noted are these: in Brassica rapa, foliar, 168 h, read-out: mortality in %. Summed up: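 Chinese cabbage leaf disks sprayed with compound diluted in water containing 1000 ppm emulsifier, then infested with mustard beetle larvae once dry. Mortality in % scored after 7 days (100% = all larvae killed, 0% = none).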

In assay [11] the test system is Blattella germanica strain PAULINIA
In words: Blattella germanica test (BLTTGE surface treatment & contact assay). Particulars: 30 minutes exposure, 24 hours after contact, read-out: efficacy (mortality in percent); for mortality at 4 mg/m2: surface concentration 4 mg/m^2, glazed tile; for mortality at 20 mg/m2: surface concentration 20 mg/m^2, glazed tile. As to the method:
Blattella germanica Test (BLTTGE Surface Treatment & Contact Assay)
as §2
In order to produce a sufficient, active ingredient containing solution it is necessary to solve the test-compound in an acetone/RME solvent mixture. This solution is pipetted onto a glazed tile and after evaporation of the acetone, adult animals of the species Blattella germanica strain PAULINIA are placed onto the dried surface. The exposure time is 30 minutes.
as §1

Assay [12] relates to Nilaparvata lugens. In words: Nilaparvata lugens - spray test 1. The conditions noted are these: in Oryza sativa, 96 h, read-out: mortality in %, 500 g/ha, rice plants, after 4 days. A digest of the protocol: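 Rice plants (Oryza sativa) were sprayed with the compound preparation in water containing 1000 ppm emulsifier, then infested with brown planthoppers. Percent mortality scored after 4 days (100% = all killed, 0% = none).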

Assay [13] concerns Myzus persicae. In words: Myzus persicae - spray test. Particulars: foliar, 120 h, Chinese cabbage leaf disks, all instars, after 5 days. As to the method: Myzus persicae—Spray Test
as §3
Chinese cabbage (Brassica pekinensis) leaf disks infected with all instars of the green peach aphid (Myzus persicae), are sprayed with a preparation of the active ingredient of the desired concentration.
After 5 days mortality in % is determined. 100% means all aphids have been killed and 0% means none of the aphids have been killed.

Assay [14] has as its system Meloidogyne incognita. In words: Meloidogyne incognita - test. The conditions noted are these: 336 h, salad seedlings in sand, after 14 days, read-out: nematicidal activity (percentage of gall formation). As to the method: Meloidogyne incognita—Test
Solvent: 125.0 parts by weight of acetone
To produce a suitable preparation of active compound, 1 part by weight of active compound is mixed with the stated amount of solvent, and the concentrate is diluted with water to the desired concentration.
Vessels are filled with sand, a solution of the active ingredient, a suspension containing eggs and larvae of the southern root-knot nematode (Meloidogyne incognita) and salad seeds. The salad seeds germinate and the seedlings grow. Galls develop in the roots.
After 14 days the nematicidal activity is determined on the basis of the percentage of gall formation. 100% means no galls were found and 0% means the number of galls found on the roots of the treated plants was equal to that in untreated control plants.

Take `CC(c1ncnn1-c1ncc(F)cn1)N(CC1CC1)C(=O)c1cc(Cl)cc(C(F)(F)F)c1` (centres unmarked) [Compound I-81, 3-chloro-N-(cyclopropylmethyl)-N-[1-[2-(5-fluoropyrimidin-2-yl)-1,2,4-triazol-3-yl]ethyl]-5-(trifluoromethyl)benzamide]: the mortality at 4 mg/m2 in [1], in assay [6], in [8] and in assay [11] was 80 to 100% throughout. Besides, the mortality at 20 mg/m2 in assay [1], in [6], in assay [8] and in assay [11] was 80 to 100% each time. In [2], the mortality at 100 ppm came out at 100%. In assay [3], the pest or weed control at 160 µg/disc, 160 µg/well turned out to be 100%. For the same compound, the mortality at 20 ppm in [4] is 100%. For the same compound, the mortality at 500 g/ha in assay [5] came out at 100%; in assay [7], 80%; in [9] it was 100%; in assay [10], 100%; in assay [12] it was 100%.

Turning to `CC(NC(=O)c1cc(Cl)cc(I)c1)c1ncnn1-c1ncccn1` (centres unmarked) [Compound I-126, 3-chloro-5-iodo-N-[1-(2-pyrimidin-2-yl-1,2,4-triazol-3-yl)ethyl]benzamide], the mortality at 500 g/ha in [13] worked out at 90%; in assay [5], 100%; in [9] it was 100%. Besides, the pest or weed control at 160 µg/disc, 160 µg/well in [3] was 100%.

As to `C#CCN(C(=O)c1cc(Cl)cc(C(F)(F)F)c1)C(C)c1ncnn1-c1ncccn1` (centres unmarked) [Compound I-41, 3-chloro-N-prop-2-ynyl-N-[1-(2-pyrimidin-2-yl-1,2,4-triazol-3-yl)ethyl]-5-(trifluoromethyl)benzamide], the mortality at 100 ppm in [2] is 100%. Further, in [3], the pest or weed control at 160 µg/disc, 160 µg/well came out at 100%. The mortality at 20 ppm in assay [4] was found to be 100%. Further, the mortality at 500 g/ha in [5] was determined as 100%; in assay [7] it was 90%; in [9], 100%; in [10] it was 100%; in assay [12] it was 100%.

In the case of `CC(c1ncnn1-c1ncccn1)N(CC1CC1)C(=O)c1cc(Cl)cc(OC(F)(F)F)c1` (centres unmarked) [Compound I-37, 3-chloro-N-(cyclopropylmethyl)-N-[1-(2-pyrimidin-2-yl-1,2,4-triazol-3-yl)ethyl]-5-(trifluoromethoxy)benzamide], the mortality at 4 mg/m2 in [1], in assay [6], in assay [8] and in [11] was 80 to 100% each time. For the same compound, the mortality at 20 mg/m2 in [1], in assay [6], in assay [8] and in [11] was 80 to 100% throughout. The mortality at 100 ppm in assay [2] came to 100%. For the same compound, the pest or weed control at 160 µg/disc, 160 µg/well in assay [3] stood at 100%. The mortality at 20 ppm in assay [4] worked out at 100%. The mortality at 500 g/ha is 100% in [5]; 90% in assay [7]; 100% in [9]; 100% in assay [10]; 100% in [12].

`CC(NC(=O)c1cc(Cl)cc(Br)c1)c1ncnn1-c1ncccn1` (centres unmarked) [Compound I-125, 3-bromo-5-chloro-N-[1-(2-pyrimidin-2-yl-1,2,4-triazol-3-yl)ethyl]benzamide]: the mortality at 500 g/ha in [13] was found to be 90%; in assay [5], 100%; in [9] it was 100%. The pest or weed control at 160 µg/disc, 160 µg/well in [3] was 100%.

As for `CCN(C(=O)c1cc(Cl)cc(C(F)(F)F)c1)C(C)c1ncnn1-c1ncccn1` (centres unmarked) [Compound I-97, 3-chloro-N-ethyl-N-[1-(2-pyrimidin-2-yl-1,2,4-triazol-3-yl)ethyl]-5-(trifluoromethyl)benzamide], in assay [2], the mortality at 100 ppm was 100%. Besides, the pest or weed control at 160 µg/disc, 160 µg/well in assay [3] is 100%. In [4], the mortality at 20 ppm is 100%. In addition, the mortality at 500 g/ha is 100% in [5]; 80% in assay [7]; 100% in assay [9]; 100% in assay [10]; 100% in assay [12].

In the case of `CC(c1ncnn1-c1ncccn1)N(CC1CC1)C(=O)c1cccc(SC(F)(F)F)c1` (centres unmarked) [Compound I-83], in assay [2], the mortality at 100 ppm was 100%. Moreover, in assay [3], the pest or weed control at 160 µg/disc, 160 µg/well is 100%. The mortality at 20 ppm in [4] was determined as 100%. The mortality at 500 g/ha in assay [5] worked out at 100%; in assay [7], 100%; in assay [9], 83%; in [10], 100%; in [12] it was 100%.

For the compound `C[C@@H](c1ncnn1-c1ncccn1)N(CC(F)F)C(=O)c1cc(Cl)cc(C(F)(F)F)c1` [Compound I-127, 3-chloro-N-(2,2-difluoroethyl)-N-[(1S)-1-(2-pyrimidin-2-yl-1,2,4-triazol-3-yl)ethyl]-5-(trifluoromethyl)benzamide], the mortality at 500 g/ha in assay [13], in assay [5] and in assay [9] was 100% throughout. Also, in [3], the pest or weed control at 160 µg/disc, 160 µg/well is 100%.

As for `CC(c1ncnn1-c1nccc(C(F)(F)F)n1)N(CC1CC1)C(=O)c1cc(Cl)cc(C(F)(F)F)c1` (centres unmarked) [Compound I-82], the pest or weed control at 20 ppm in assay [14] turned out to be 100%. Also, in [2], the mortality at 100 ppm amounted to 100%. Moreover, the pest or weed control at 160 µg/disc, 160 µg/well in [3] came to 100%. The mortality at 20 ppm in assay [4] was 100%. Moreover, the mortality at 500 g/ha in assay [5] worked out at 100%; in [7], 80%; in [9], 100%; in [10] it was 100%; in assay [12] it was 100%.
